Measured values: publication PMC8243515 (JHEP Reports, 2021)
Entries after “also recorded” stand apart in the source; their conditions may differ. Where two headings read alike, the source gives them in different places.

Columns and labels:
HBV [1] = assay: microbe, parasite or virus in culture; type: cell-based, hepatitis B virus genotype D; conditions: for %Imax, p1 infection: percent maximum inhibition; for effect on p1 cell infection (phenotype): reference inhibitors, assay validation
HBV [2] = assay: microbe, parasite or virus in culture; type: cell-based, hepatitis B virus genotype D; conditions: for %Imax, p2 infection: percent maximum inhibition; for Emax: read-out: %Imax; for p2 cells still infected at high inhibitor concentrations: high concentrations of late-phase reference inhibitors
HBV [3] = conditions: read-out: Published EC50, cited from earlier work
HepG2-NTCPsec+ cells = assay: Cell viability by automated nuclei counting; type: cell-based, human; conditions: hit confirmation DRC, 10-point serial dilutions starting at 25 μM
NTCP [4] = biological target: T1, NTCP (Homo sapiens, UniProt Q14973); assay: Binding assay of Alexa633-labelled HBV preS1 peptide; conditions: for effect on preS1 peptide binding to NTCP: cytochalasin D tested up to 50 μM
T1 sequence (Q14973 1-349): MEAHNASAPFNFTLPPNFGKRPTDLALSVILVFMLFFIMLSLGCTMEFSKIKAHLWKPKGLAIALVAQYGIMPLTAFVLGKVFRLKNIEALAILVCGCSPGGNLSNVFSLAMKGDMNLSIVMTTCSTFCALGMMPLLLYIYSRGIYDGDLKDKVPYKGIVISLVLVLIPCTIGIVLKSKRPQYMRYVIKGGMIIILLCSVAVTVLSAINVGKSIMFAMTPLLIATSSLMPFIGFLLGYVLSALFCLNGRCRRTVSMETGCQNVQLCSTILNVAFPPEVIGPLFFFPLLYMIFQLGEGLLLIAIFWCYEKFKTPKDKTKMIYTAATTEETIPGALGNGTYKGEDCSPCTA

[5] = tested on: HBV preS1 peptide internalisation; assay: Live-cell imaging of Alexa633-labelled preS1 peptide internalisation; type: cell-based; conditions: after transfer to 37°C, confocal live-cell imaging
SARS-CoV-2 [6] = type: cell-based
HIV-1 = type: cell-based, HIV-1 strain LAI; conditions: Fig. S3
SARS-CoV-2 [7] = conditions: virus-free, live-cell assay; cited from earlier work
HBV [8] = assay: Time-of-addition experiments, HBV infection; type: cell-based, hepatitis B virus; conditions: pretreatment/cotreatment vs post-inoculation 1-7 dpi
HBV [9] = assay: Stably HBV replicating HepAD38 cells, supernatant HBV DNA by quantitative PCR; type: cell-based, hepatitis B virus; conditions: supernatant qPCR at 7 days post-treatment
HCV = type: cell-based
NTCP [10] = biological target: T1, NTCP; conditions: transiently NTCP-transfected U2OS cells; cited from earlier work
HBV and HDV = conditions: cited from earlier work
[11] = read-out: EC50, p1 infection, p1 cells, DRC of reference inhibitors
[12] = Hepatitis B virus, read-out: EC50 (μM), early HBV life cycle inhibitors

## COC(=O)C1=C(C)NC(c2ncc(F)cc2F)=N[C@H]1c1ccc(F)cc1Cl [Bay41-4109]
HBV [1]; p1 cells
  %Imax, p1 infection: 99%
HBV [1]; [11]
  EC50: 1.3 µM
HBV [2]; p2 cells
  %Imax, p2 infection: 99%

## O=C(CN(c1cc(C(F)(F)F)ccc1Cl)S(=O)(=O)c1ccccc1)NCc1ccncc1 [CCC-0975]
HBV [1]; p1 cells
  %Imax, p1 infection: 60%
HBV [1]; [11]
  EC50: ~5 µM
HBV [1]
  effect on p1 cell infection (phenotype): inhibited HBV infection in p1 and p2 cells
HBV [3]; System HepDE19, ref PMID 22644022
  EC50: 10 µM
HBV [2]; after supernatant transfer
  effect on p2 cell infection / infectivity of HBV progeny: inhibited HBV infection in p1 and p2 cells
HBV [2]; read-out: EC50, p2 infection (after supernatant transfer), p2 cells
  EC50: ~8 µM

## CC(C)(C)c1cc(C(=O)/C=C/c2ccc(C(=O)O)cc2)cc(C(C)(C)C)c1 [Ch 55]
HepG2-NTCPsec+ cells
  CC50: > 25 µM
HBV [2]; p2 inhibitor, hit confirmation DRC
  %Imax: 99.9%
HBV [2]; p2 inhibitor, hit confirmation DRC, 10-point serial dilutions starting at 25 μM
  EC50: 3.21 µM

## C=C1[C@@H](C)[C@H]2[C@H](Cc3ccccc3)NC(=O)[C@]23[C@H](OC(C)=O)/C=C/[C@@](C)(O)C(=O)[C@@H](C)C/C=C/[C@H]3[C@@H]1O [Cytochalasin D, cytochalasin D]
NTCP [4]
  effect on preS1 peptide binding to NTCP: did not prevent the binding
NTCP [4]; listed as cytochalasin D
  effect on preS1 peptide binding to NTCP: did not interfere with receptor–virus binding
[5]
  effect on internalisation of HBV preS1 peptide: prevented the internalisation of HBV; also recorded: partially reduced; also recorded: partial retention of the peptide at the plasma membrane
SARS-CoV-2 [6]; Fig. S3
  effect on SARS-CoV-2 infection: minor activity in both virus systems; also recorded: inhibits SARS-CoV-2 infection
HBV [1]; [12]
  EC50: 0.07 µM
HBV [1]; p1 cells
  Imax (%), early HBV life cycle inhibitors: 86%
HIV-1
  effect on HIV-1 infection: minor activity in both virus systems
SARS-CoV-2 [7]
  effect on SARS-CoV-2 cell entry: prevent SARS-CoV-2 cell entry
HBV [8]
  anti-HBV activity in time-of-addition experiments: exhibited anti-HBV activity exclusively under the pretreatment/cotreatment conditions

## Nc1ncn([C@H]2C[C@H](O)[C@@H](CO)O2)c(=O)n1 [Decitabine]
HBV [2]; Hepatitis B virus
  Emax: 91.9%

## Cc1cccc([C@H](C)c2cnc[nH]2)c1C [Dexmedetomidine, dexmedetomidine]
SARS-CoV-2 [6]
  effect on SARS-CoV-2 infection: no inhibition was observed; also recorded: do not interfere in the production and spread
HBV [9]
  effect on HBV replication / HBV DNA secretion in HepAD38 cells: without reducing HBV replication or genome secretion; also recorded: did not inhibit HBV DNA replication
HBV [2]
  Imax (%), late HBV life cycle inhibitors: 82%
  effect on p2 cell infection / infectivity of HBV progeny: interfered with the infectivity of HBV progeny; also recorded: mitigated the infectivity of secreted progeny HBV particles; also recorded: strongly suppresses the infectivity of secreted progeny HBV particles
HBV [2]; Hepatitis B virus, read-out: EC50 (μM), late HBV life cycle inhibitors
  EC50: 6.2 µM
HBV [2]; read-out: EC50 (μM), late HBV life cycle inhibitors
  EC50: 6.23 µM
HCV
  effect on HCV replication and secretion: no inhibition was observed; also recorded: do not interfere in the production and spread

## C=C1[C@H](CO)[C@@H](O)C[C@@H]1n1cnc2c(=O)[nH]c(N)nc21 [Entecavir]
HBV [2]; Hepatitis B virus
  Emax: 96.7%

## O=c1[nH]c(=O)n([C@H]2C[C@H](O)[C@@H](CO)O2)cc1F [Floxuridine]
HBV [2]; Hepatitis B virus
  Emax: 97.6%

## O=C(O)P(=O)(O)O [Foscarnet]
HBV [2]; Hepatitis B virus
  Emax: 94.2%

## CCOC(=O)C1=C(CN2CCOCC2)NC(c2nccs2)=NC1c1ccc(F)cc1Br (stereo not drawn) [GLS4]
HBV [1]; class II core protein allosteric modifiers, Fig. S4
  HBcAg phenotype under CpAM treatment: aggregated HBcAg phenotype

## CC(C)OC(=O)[C@H](C)N[P@](=O)(CO[C@H](C)Cn1cnc2c(N)ncnc21)Oc1ccccc1 [GS-7340]
HBV [2]; Hepatitis B virus
  EC50: < 0.05 µM
  Emax: 99.4%

## O=C1Cc2ccccc2C(=O)N1O [HID, N-hydroxyisoquinolinedione]
HBV [1]; [11]
  EC50: > 50 µM
HBV [1]
  effect on p1 cell infection (phenotype): did not affect the infection status of p1 cells
HBV [3]; System HepDES19, ref PMID 24858512
  EC50: 4.2 µM
HBV [2]; after supernatant transfer
  effect on p2 cell infection / infectivity of HBV progeny: reduced number of infected p2 cells
HBV [2]
  p2 cells still infected at high inhibitor concentrations: 2–5%
HBV [2]; p2 cells
  %Imax, p2 infection: 99%

## CN1c2cc3c(cc2N=C(c2ccc(C(=O)O)cc2)c2ccccc21)C(C)(C)CCC3(C)C [LE 135]
HepG2-NTCPsec+ cells
  CC50: > 25 µM
HBV [1]; p1 inhibitor, hit confirmation DRC
  %Imax: 94.5%
HBV [1]; p1 inhibitor, hit confirmation DRC, 10-point serial dilutions starting at 25 μM
  EC50: 11.7 µM

## Nc1ccn([C@@H]2CS[C@H](CO)O2)c(=O)n1 [LMV, lamivudine]
HBV [1]; Hepatitis B virus, read-out: EC50, p1 infection
  EC50: > 10 µM
HBV [2]; Hepatitis B virus, read-out: EC50 (μM), late HBV life cycle inhibitors, infectious HBV genotype D, p2 cells
  EC50: 0.02 µM
HBV [2]
  p2 cells still infected at high inhibitor concentrations: 2–5%
HBV [2]; p2 cells
  Imax (%), late HBV life cycle inhibitors: 98%

## CC[C@H](C)C(=O)O[C@H]1CCC=C2C=C[C@H](C)[C@H](CC[C@@H]3C[C@@H](O)CC(=O)O3)[C@H]21 [Mevastatin]
HBV [2]; Hepatitis B virus
  Emax: 101%

## COC(=O)Nc1nc2ccc(C(=O)c3cccs3)cc2[nH]1 [Nocodazole]
HBV [2]; Hepatitis B virus
  Emax: 91.8%

## CC[C@@H]([C@H](C)O)n1ncn(-c2ccc(N3CCN(c4ccc(OC[C@@H]5CO[C@@](Cn6cncn6)(c6ccc(F)cc6F)C5)cc4)CC3)cc2)c1=O [Posaconazole]
HBV [2]; Hepatitis B virus
  Emax: 96.4%

## C#CCC(Cc1cnc2nc(N)nc(N)c2n1)c1ccc(C(=O)N[C@@H](CCC(=O)O)C(=O)O)cc1 (stereo partly drawn) [Pralatrexate]
HBV [2]; Hepatitis B virus
  Emax: 102%

## O=C(Nc1cccc2c(=O)cc(-c3nnn[nH]3)oc12)c1ccc(OCCCCc2ccccc2)cc1 [Pranlukast, pranlukast]
NTCP [4]
  EC50: 7.6 µM
  effect on preS1 peptide binding to NTCP: inhibited HBV preS1 binding
NTCP [4]; listed as pranlukast
  effect on preS1 peptide binding to NTCP: blocked the binding
SARS-CoV-2 [6]; Fig. S3
  effect on SARS-CoV-2 infection: only inhibited HIV-1; also recorded: but not pranlukast
HBV [1]; [12]
  EC50: 4.3 µM
HBV [1]; p1 cells
  Imax (%), early HBV life cycle inhibitors: 92%
NTCP [10]
  effect on NTCP bile acid transporter function: inhibits the bile acid transporter function
HIV-1
  effect on HIV-1 infection: only inhibited HIV-1
HBV [8]
  anti-HBV activity in time-of-addition experiments: exhibited anti-HBV activity exclusively under the pretreatment/cotreatment conditions

## Cc1nc2ccc(CN(C)c3ccc(C(=O)N[C@@H](CCC(=O)O)C(=O)O)s3)cc2c(=O)[nH]1 [Raltitrexed]
HBV [2]; Hepatitis B virus
  Emax: 93.7%

## Cc1c(C(=O)NN2CCCCC2)nn(-c2ccc(Cl)cc2Cl)c1-c1ccc(Cl)cc1 [Rimonabant]
HBV [2]; Hepatitis B virus
  Emax: 99.4%

## CCC(C)(C)C(=O)O[C@H]1C[C@@H](C)C=C2C=C[C@H](C)[C@H](CC[C@@H]3C[C@@H](O)CC(=O)O3)[C@H]21 [Simvastatin]
HBV [2]; Hepatitis B virus
  Emax: 99.9%

## CC(C)OC(=O)OCOP(=O)(CO[C@H](C)Cn1cnc2c(N)ncnc21)OCOC(=O)OC(C)C.O=C(O)/C=C/C(=O)O [TDF, tenofovir disoproxil fumarate]
HBV [1]; [11]
  EC50: > 50 µM
HBV [1]
  effect on p1 cell infection (phenotype): did not affect the infection status of p1 cells
HBV [2]; after supernatant transfer
  effect on p2 cell infection / infectivity of HBV progeny: reduced number of infected p2 cells
HBV [2]
  p2 cells still infected at high inhibitor concentrations: 2–5%

## CC[C@]1(O)C[C@H]2CN(CCc3c([nH]c4ccccc34)[C@@](C(=O)OC)(c3cc4c(cc3OC)N(C=O)[C@H]3[C@@](O)(C(=O)OC)[C@H](OC(C)=O)[C@]5(CC)C=CCN6CC[C@]43[C@@H]65)C2)C1 [Vincristine]
HBV [2]; Hepatitis B virus
  Emax: 96.9%

## COc1cc(C(=O)NS(=O)(=O)c2ccccc2C)ccc1Cc1cn(C)c2ccc(NC(=O)OC3CCCC3)cc12 [zafirlukast]
HBV and HDV
  concentration significantly inhibiting HBV and HDV infection: 6 µM

## IFNα
HBV [1]; p1 cells treated over several weeks, Fig. S5A
  antiviral effect on early HBV life cycle steps: no or only insignificant antiviral effects
HBV [2]
  antiviral effect on late HBV life cycle steps: no or only insignificant antiviral effects
